# Key:
# Type in all cases: cell-based
# CFTR ΔF508 = target: T1, CFTR ΔF508 (Homo sapiens, UniProt P13569, DEL508-508); assay: TECC assay, primary bronchial epithelial cells, CFTR ΔF508; settings: primary bronchial epithelial cells of CF patients homozygous for CFTR ΔF508, treated with 3 μM VX809, increase in Isc after forskolin
# T1 construct: host or cells: primary human bronchial epithelial cells from CF patients homozygous for ΔF508, pre-treated with VX809
# Outline: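 Short-circuit current (Isc) measured by TECC at 37 °C in NaCl-Ringer pH 7.4, using primary bronchial epithelia from ΔF508-homozygous CF patients, differentiated 21 days at air-liquid interface and corrected with 3 μM VX809. Recordings taken after amiloride and forskolin, every 2 min over 20 min, with compound added either acutely or chronically (48 h basolateral/24 h apical). Value is ΔIsc over the DMSO baseline; EC50 from concentration series.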
# CFTR-R117H = target: T2, CFTR-R117H (Homo sapiens, UniProt P13569, R117H); assay: YFP-halide influx assay for the CFTR-R117H
# T2 construct: expressed in transfected cells
# T2 sequence (P13569 whole entry R117H): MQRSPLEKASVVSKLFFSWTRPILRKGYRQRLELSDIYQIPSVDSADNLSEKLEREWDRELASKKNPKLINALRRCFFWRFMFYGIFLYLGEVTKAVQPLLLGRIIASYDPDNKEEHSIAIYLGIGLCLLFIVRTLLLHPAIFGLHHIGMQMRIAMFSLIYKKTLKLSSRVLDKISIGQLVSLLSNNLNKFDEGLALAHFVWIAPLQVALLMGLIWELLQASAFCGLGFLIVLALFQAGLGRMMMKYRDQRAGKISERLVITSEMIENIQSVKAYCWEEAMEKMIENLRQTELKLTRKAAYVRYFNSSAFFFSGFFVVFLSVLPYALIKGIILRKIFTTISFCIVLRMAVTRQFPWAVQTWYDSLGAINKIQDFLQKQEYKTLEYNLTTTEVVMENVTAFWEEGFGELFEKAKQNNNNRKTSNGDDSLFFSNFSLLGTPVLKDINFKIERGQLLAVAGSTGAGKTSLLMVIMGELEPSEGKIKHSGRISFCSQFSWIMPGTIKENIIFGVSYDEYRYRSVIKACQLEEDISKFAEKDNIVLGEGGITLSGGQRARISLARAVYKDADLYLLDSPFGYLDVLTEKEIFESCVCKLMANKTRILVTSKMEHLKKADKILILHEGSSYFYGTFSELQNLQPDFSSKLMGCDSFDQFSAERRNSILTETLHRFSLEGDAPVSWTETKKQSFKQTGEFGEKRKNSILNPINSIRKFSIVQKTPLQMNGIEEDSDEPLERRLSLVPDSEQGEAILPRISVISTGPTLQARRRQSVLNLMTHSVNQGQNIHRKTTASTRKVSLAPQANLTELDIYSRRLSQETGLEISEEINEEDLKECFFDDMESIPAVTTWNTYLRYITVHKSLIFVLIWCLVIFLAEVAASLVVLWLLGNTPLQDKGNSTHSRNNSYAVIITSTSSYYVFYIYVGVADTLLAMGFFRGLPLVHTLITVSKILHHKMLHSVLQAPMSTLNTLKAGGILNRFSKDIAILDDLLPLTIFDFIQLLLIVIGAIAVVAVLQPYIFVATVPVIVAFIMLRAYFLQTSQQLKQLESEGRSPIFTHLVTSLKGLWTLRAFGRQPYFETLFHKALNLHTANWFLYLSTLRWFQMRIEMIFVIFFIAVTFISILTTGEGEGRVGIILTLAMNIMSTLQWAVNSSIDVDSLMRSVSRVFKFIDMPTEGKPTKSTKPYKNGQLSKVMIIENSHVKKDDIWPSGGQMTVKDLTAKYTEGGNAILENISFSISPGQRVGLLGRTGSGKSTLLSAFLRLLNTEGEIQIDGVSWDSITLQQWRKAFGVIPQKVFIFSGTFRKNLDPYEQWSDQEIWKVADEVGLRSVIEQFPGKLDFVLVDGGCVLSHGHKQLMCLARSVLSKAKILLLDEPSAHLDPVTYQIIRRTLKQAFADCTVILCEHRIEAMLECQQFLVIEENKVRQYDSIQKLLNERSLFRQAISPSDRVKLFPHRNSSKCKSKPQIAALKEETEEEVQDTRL
# Outline: (§1)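 HEK293 cells reverse-transfected with a CFTR mutant and YFP H148Q/I152L/F47L halide sensor, expressed 24 h at 37° C. Fluorescence quenching followed for 7 s after I⁻ injection; activity expressed as 1−F/F0, with EC50 fitted from 1−F/F0 versus compound concentration.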
# CFTR-G1349D = target: T3, CFTR-G1349D (Homo sapiens, UniProt P13569, G1349D); assay: YFP-halide influx assay for the CFTR-G1349D
# T3 construct: expressed in transfected cells
# T3 sequence (P13569 whole entry G1349D): as the sequence (P13569 whole entry R117H) above, with H117R, G1349D counted along it
# Outline: as §1
# CFTR-G178R = target: T4, CFTR-G178R (Homo sapiens, UniProt P13569, G178R); assay: YFP-halide influx assay for the CFTR-G178R
# T4 construct: expressed in transfected cells
# T4 sequence (P13569 whole entry G178R): as the sequence (P13569 whole entry R117H) above, with H117R, G178R counted along it
# Outline: as §1
# CFTR-S549N = target: T5, CFTR-S549N (Homo sapiens, UniProt P13569, S549N); assay: YFP-halide influx assay for the CFTR-S549N; set-up: % Activation: concentration or dose not given beside the values
# T5 construct: expressed in transfected cells
# T5 sequence (P13569 whole entry S549N): as the sequence (P13569 whole entry R117H) above, with H117R, S549N counted along it
# Outline: as §1
# T1 sequence (P13569 with tags, fused parts or gaps DEL508-508): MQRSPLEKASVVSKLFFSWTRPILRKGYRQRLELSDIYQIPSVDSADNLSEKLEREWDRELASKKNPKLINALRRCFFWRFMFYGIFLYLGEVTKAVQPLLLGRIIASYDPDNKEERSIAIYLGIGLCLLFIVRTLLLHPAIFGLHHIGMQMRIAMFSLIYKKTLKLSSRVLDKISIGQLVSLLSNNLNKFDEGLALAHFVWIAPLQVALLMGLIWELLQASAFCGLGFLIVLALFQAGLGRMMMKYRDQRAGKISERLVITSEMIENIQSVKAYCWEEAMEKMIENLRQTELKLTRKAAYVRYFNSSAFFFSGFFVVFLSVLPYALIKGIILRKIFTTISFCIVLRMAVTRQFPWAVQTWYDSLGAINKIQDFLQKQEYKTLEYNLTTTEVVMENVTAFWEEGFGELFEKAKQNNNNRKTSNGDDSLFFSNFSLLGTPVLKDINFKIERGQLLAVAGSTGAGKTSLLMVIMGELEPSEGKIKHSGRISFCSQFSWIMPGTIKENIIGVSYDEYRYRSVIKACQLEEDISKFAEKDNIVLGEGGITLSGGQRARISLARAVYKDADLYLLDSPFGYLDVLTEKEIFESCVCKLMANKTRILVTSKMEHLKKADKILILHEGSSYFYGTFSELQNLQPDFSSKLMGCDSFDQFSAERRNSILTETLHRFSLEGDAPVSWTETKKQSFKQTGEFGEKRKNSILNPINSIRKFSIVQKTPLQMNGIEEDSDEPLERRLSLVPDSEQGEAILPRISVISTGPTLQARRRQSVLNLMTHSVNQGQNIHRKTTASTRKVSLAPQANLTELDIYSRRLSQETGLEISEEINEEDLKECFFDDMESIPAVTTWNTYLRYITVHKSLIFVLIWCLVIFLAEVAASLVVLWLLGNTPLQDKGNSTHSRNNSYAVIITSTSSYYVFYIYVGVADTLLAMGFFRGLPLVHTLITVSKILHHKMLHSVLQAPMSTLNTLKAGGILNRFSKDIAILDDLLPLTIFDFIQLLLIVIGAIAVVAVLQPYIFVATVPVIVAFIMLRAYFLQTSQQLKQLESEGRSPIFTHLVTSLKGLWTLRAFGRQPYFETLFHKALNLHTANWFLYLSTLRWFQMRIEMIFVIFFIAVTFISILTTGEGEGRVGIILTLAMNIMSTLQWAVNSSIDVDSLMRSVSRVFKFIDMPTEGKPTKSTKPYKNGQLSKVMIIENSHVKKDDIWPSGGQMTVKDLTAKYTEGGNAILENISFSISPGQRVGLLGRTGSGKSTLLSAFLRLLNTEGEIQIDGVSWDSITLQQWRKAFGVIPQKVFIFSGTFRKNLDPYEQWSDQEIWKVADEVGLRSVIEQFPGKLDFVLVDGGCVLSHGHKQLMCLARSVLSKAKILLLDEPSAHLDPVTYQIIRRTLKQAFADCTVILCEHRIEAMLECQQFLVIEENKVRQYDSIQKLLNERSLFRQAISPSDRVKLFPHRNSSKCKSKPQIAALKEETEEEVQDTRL
smiles,measurement,setting,value
"Nc1cc(S(=O)(=O)c2ccccc2OC(F)(F)F)cnc1C(=O)NC[C@@H](O)C(F)(F)F [Compound 81, 3-amino-N-[(2R)-3,3,3-trifluoro-2-hydroxypropyl]-5-{[2-(trifluoromethoxy)phenyl]sulfonyl}pyridine-2-carboxamide]",EC50,CFTR ΔF508,9.49 nM
same,% Activation,CFTR-R117H,113.2%
same,EC50,CFTR-R117H,21.8 nM
same,% Activation,CFTR-G1349D,96.01%
same,EC50,CFTR-G1349D,9.54 nM
same,% Activation,CFTR-G178R,104.8%
same,EC50,CFTR-G178R,12.6 nM
same,% Activation,CFTR-S549N,107%
same,EC50,CFTR-S549N,11.1 nM

# — patent publication US10047051B2, “Substituted pyridines and method of use” (AbbVie S.á{acute over (.)}r.l., priority 2015, dated 2018)
